Experimental findings from patent US12707888B2, “Asymmetric donor-acceptor molecular dyes” (THE UNIVERSITY OF NORTH CAROLINA AT CHARLOTTE, priority 2019, dated 2026) are described below.

A short description of series [1]: Temperature studies of emission in MeTHF (thermofluorochromism). It counts as physicochemical. The note with it: for wavelength of emission: 10 μM in MeTHF. The method, then:
In an extension of sensing the surrounding polarity, the dependence of the wavelength of emission as a function of temperature and pH were also explored. For these efforts, Bu2N-TTz-Py was chosen as a focal representative of the asymmetric TTzs for its solubility, amphiphilicity, high Stokes shifts, and otherwise similar photophysical characteristics. For the temperature studies, a 10 μM MeTHF solution of Bu2N-TTz-Py was prepared and the emission of the solution was monitored from −196-60° C. MeTHF was chosen for its wide liquid temperature window and ability to form a glass upon freezing; most other solvents crystallize upon solidification and inhibit fluorescence. The low temperature studies were achieved using various liquid N2 cooling baths (see Experimental). Due to the condensation of atmospheric moisture during low-temperature testing, only the normalized emission intensities are reported. […] At temperatures near the freezing point of MeTHF and below, however, the wavelength of emission rapidly blue-shifts from 559 to 544 to 503 nm at −131, −136, and −196° C., respectively.
4-pyridine carboxaldehyde, 4-(dibutylamino)benzaldehyde, 4-(diphenylamino)benzaldehyde, terephthalaldehyde, dithiooxamide, and all solvents used for spectroscopic measurements were purchased from Sigma-Aldrich and used without further purification. ^1H and ^13CNMR measurements were obtained with either a JEOL 300 MHz NMR or a JEOL 500 MHz NMR. High resolution mass spectra were obtained using a Thermo Fisher Scientific MSQ Plus Single Quadrupole Mass Spectrometer. Solution-state UV-Vis spectra were collected on a Cary 300 UV-Vis spectrophotometer. Time-resolved measurements were taken on a Jobin Yvon-Spex Fluorolog equipped with a 389 nm diode laser for time-resolved PL decay measurements. Igor Pro 6.3 software was used to fit PL(t) decay data to single/multiple exponential decays. Quantum yields were calculated using 9,10-diphenylanthracene as a reference (quantum yield [ΦF] in cyclohexane=0.97).^40-41 Density functional theory (DFT) calculations were performed with Spartan computational software using B3LYP^42-43 density functional and 6-31G*^44 basis set. Temperature studies were conducted using a 10 μM Bu2N-TTz-Py MeTHF solution placed inside of a Norrell 502 NMR tube and sequentially submerged in the following liquid N2 baths:octanol (−16° C.), acetonitrile (−41° C.), acetone (−94° C.), pentane (−131° C.), MeTHF (−136° C.), and liquid N2 itself (−196° C.). The phosphorescence spectrum of Bu2N-TTz-Py (see S2) was collected similarly at −196° C. by pumping with 389 nm light while inside a liquid nitrogen bath and then probing the emission within 2 sec of removing from the bath. Human embryonic kidney cells (HEK 293T) were a kind gift from Prof. Bryan Dickinson, and Mouse macrophage J774A.1 cells were a kind gift from Prof. Deborah Nelson at the University of Chicago. Cells were cultured in Dulbecco's Modified Eagle's Medium (Invitrogen Corporation, USA) containing 10% heat inactivated Fetal Bovine Serum (FBS) (Invitrogen Corporation, USA), 100 U/mL penicillin, and 100 μg/mL streptomycin. Cells were maintained at 37° C. under 5% CO2.

A further series has as its system J774.A1 cells. Put plainly: Cell labeled spectral measurements. It counts as cell-based, Mouse. The method, then: FIG. 11C are normalized excitation/emission spectra of 1 μM Bu2N-TTz-Py in PBS buffer with 0.1% TritonX-100 before and after loading into ~0.5×10^5 J774.A1 cells. Excitation spectra (dashed line) were collected at 520 nm and emission spectra (solid line) were collected with 440 nm excitation.
Cell labeled spectral measurements. Excitation and emission spectra were collected by labeling the alveolar macrophage cell line J774.A1 (~0.5×10^5 cells) with 1 μM Bu2N-TTz-Py in phosphate buffered saline (PBS) buffer and 0.1% TritonX-100. Cells were incubated with dye for 10 min at RT, washed thrice with PBS, and dispersed in a cuvette for fluorescent spectral measurements (Fluoromax-4, Horiba Scientific, Edison, NJ, USA). Excitation spectra were collected at 520 nm emission. Emission spectra were collected by exciting at 440 nm. Electrophysiology. Whole cell voltage clamping measurements of 500 nM Bu2N-TTz-Py labeled HEK 293T cells were performed with Axopatch 200A amplifier (Molecular Devices), digitized using an NI-6251 DAQ (National Instruments), and controlled using WinWCP software (Strathclyde Electrophysiology Software). Patch pipettes were pulled using a Sutter P-97 Micropipette puller. Patch pipettes with resistances between 5-10 MOhm were used in voltage clamping experiments. The patch pipette was positioned using an MP325 motorized manipulator (Sutter). Metamorph premier Ver. 7.8.12.0 was linked to an NI-6501 DAQ to enable voltage triggered image acquisition. Extracellular solution composition was 145 mM NaCl, 20 mM glucose, 10 mM HEPES, pH 7.4, 3 mM KCl, 2 mM CaCl2), 1 mM MgCl2 (310 mOsm); and the intracellular solution composition was 115 mM potassium gluconate, 10 mM EGTA tetrapotassium salt, 10 mM HEPES, pH 7.2, 5 mM NaCl, 10 mM KCl, 2 mM ATP disodium salt (290 mOsm).

The nature of series [2]: Solubility in aqueous environments. It counts as physicochemical.

Take `CCCCN(CCCC)c1ccc(-c2nc3sc(-c4ccncc4)nc3s2)cc1` [Bu2N-TTz-Py, 2-(N,N-dibutyl-4-aminophenyl)-5-(4-pyridyl) thiazolo[5,4-d]thiazole]: the wavelength of emission in series [1] (60° C.) worked out at 519 nm; in series [1] (−131° C.), 559 nm; in series [1] (−136° C.) it was 544 nm; in series [1] (−196° C.) it was 503 nm. Further, in series [1] (TTz/MeTHF solution, liquid range of MeTHF), the “temperature sensitivity of emission wavelength” value was −0.21 nm ° C.^−1. In the series on J774.A1 cells (localized to cell membranes, 440 nm excitation), the peak emission wavelength came to 483 nm. Also, the peak excitation wavelength in the series on J774.A1 cells (localized to cell membranes, collected at 520 nm emission) came out at 423 nm. Also, the “wavelength of peak emission” value in the series with J774.A1 cells (solution of PBS with 0.1% Triton-X100, before loading into cells) was found to be 518 nm. The “solubility in aqueous environments” value in series [2] is listed as “poor solubility”.
